Reference: patent US20060234906A1, “Structure of a complex of retinoblastoma protein bound to e2f, and uses thereof” (priority 2002, published 2006)
Residues, ends and D or L forms follow the SMILES beside them. *: point of attachment. 5FAM = O=C1OC2(c3ccc(O)cc3Oc3cc(O)ccc32)c2ccc(C(=O)*)cc21

How the values were obtained:
pRb/Fl-E7 = target: T1, pRb/Fl-E7 (Homo sapiens, UniProt P06400); assay: Fluorescence polarization displacement binding, Fl-E7 bound to pRb; conditions: fluoro-tagged peptide 400 nM pre-incubated with pRb 1 μM
T1 sequence (P06400 373-771 limits assumed): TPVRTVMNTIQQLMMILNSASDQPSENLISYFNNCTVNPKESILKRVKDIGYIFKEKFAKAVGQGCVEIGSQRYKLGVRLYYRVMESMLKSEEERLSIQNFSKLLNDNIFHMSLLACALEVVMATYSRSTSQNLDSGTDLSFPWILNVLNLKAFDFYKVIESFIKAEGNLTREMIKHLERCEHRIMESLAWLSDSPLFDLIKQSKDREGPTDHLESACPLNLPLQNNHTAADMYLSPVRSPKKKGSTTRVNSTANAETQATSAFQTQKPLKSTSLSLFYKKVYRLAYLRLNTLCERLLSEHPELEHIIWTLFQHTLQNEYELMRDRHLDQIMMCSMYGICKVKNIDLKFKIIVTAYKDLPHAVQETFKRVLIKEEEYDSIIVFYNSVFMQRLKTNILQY
Experimental: (§1) Fluoro-tagged peptide (400 nM) was pre-incubated with pRb (1 μM ) and unlabelled peptide added at the concentrations shown. Displacement binding curves were plotted (FIG. 4a), and were fitted to a one site competition binding model using Graphpad prism curve fitting software.

RbAB = target: T2, RbAB (Homo sapiens, UniProt P06400); assay: RbAB
T2 construct: residues 372 to 589 of the A domain and 636 to 787 of the B domain; GST (with Prescission protease site) (N, cleaved yes); engineered thrombin site (LVPRGS) at the A-domain end of the A-B linker (C, cleaved yes); engineered thrombin site (LVPRGS) at the B-domain end of the A-B linker (N, cleaved yes); made in house; host or cells: E. coli
T2 sequence (P06400 2-928 limits assumed): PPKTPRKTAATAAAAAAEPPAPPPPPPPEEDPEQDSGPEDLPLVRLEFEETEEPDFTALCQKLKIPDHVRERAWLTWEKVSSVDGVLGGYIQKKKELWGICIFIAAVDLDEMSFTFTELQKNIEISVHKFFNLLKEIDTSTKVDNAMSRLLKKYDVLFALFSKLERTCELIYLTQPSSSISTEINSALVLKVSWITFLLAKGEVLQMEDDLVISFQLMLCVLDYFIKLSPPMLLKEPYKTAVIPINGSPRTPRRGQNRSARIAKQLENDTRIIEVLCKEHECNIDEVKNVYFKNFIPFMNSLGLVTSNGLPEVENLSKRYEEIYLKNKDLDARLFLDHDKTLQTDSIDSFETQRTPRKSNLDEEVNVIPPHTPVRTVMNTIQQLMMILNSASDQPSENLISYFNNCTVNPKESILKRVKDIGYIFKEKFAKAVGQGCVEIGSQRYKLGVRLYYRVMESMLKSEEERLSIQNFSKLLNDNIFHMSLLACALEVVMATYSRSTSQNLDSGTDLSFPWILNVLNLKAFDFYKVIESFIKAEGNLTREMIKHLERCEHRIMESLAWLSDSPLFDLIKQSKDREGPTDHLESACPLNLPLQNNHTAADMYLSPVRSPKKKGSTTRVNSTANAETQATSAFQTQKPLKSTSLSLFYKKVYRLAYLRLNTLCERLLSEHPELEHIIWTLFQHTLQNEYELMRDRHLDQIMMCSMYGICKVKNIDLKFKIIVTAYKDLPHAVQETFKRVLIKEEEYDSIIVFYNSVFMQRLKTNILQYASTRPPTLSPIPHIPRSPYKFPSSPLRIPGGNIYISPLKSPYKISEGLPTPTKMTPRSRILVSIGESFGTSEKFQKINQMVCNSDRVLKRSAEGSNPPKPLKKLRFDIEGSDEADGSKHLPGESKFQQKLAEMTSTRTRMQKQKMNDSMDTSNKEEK
Text: (§2) Table printed on a drawing sheet, FIG. 2B
(§3) The patent's description of the figure: FIG. 2.
(§4) First copying reader's note: Binding constants of E2F fragments to the Rb constructs RbAB and RbABC; the error is printed in the same cell as the value.
Where the first naming reader finds the target: head: RbAB

RbABC = target: T3, RbABC (Homo sapiens, UniProt P06400); assay: RbABC
T3 construct: His6-RbABC (RESIDUES 380-929); made in house; host or cells: E. coli
T3 sequence (P06400 2-928 limits assumed): as above
Text: as §2, §3, §4
Where the first naming reader finds the target: head: RbABC

pRb/Fl-E2F = target: T4, pRb/Fl-E2F (Homo sapiens, UniProt P06400); assay: Fluorescence polarization displacement binding, Fl-E2F bound to pRb; conditions: fluoro-tagged peptide 400 nM pre-incubated with pRb 1 μM
T4 sequence (P06400 373-771 limits assumed): T1 sequence (P06400 373-771 limits assumed)
Experimental: as §1

pRb [1] = target: T5, pRb (Homo sapiens, UniProt P06400); assay: Competition experiment (Ni column, SDS-PAGE): E2F(409-426) against E2F(243-437) for binding to pRb; conditions: qualitative competition experiment
T5 construct: His6-RbAB (residues 376-792); made in house
T5 sequence (P06400 376-792): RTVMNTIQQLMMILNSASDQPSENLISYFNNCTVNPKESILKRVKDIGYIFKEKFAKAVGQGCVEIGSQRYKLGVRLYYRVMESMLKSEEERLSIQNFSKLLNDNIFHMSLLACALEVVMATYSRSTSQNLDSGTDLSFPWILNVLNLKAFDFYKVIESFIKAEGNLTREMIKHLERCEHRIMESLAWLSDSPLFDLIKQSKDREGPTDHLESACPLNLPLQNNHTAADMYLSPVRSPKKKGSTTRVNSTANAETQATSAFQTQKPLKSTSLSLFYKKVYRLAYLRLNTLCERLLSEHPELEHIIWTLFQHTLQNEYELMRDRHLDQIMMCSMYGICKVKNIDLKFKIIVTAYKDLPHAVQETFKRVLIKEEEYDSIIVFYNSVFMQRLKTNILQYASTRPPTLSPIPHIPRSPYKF
Text: The proteins used in these experiments were His6-RbABC (RESIDUES 380-929); MW 66.07 kDa, non-tagged RbAB (residues 372-787); MW 48.67 KDa, are His6-RbAB (residues 376-792); MW 49.86 KDa, E2F(243-437); MW 21.45 KDa HPV E7 (residues 17-98); MW 9.38 KDa and E2F(409-426); MW 2.12 KDa. Protein concentrations were carefully determined by u.v. spectroscopy and confirmed by ITC titrations. The small acidic E2F proteins stain much weaker than Rb with Coomassie on SDS-PAGE. For all gel lanes contained a final RbAB concentration of ca. 7 μM. After equilibration with E2F(243-437) and E2F(409-426) the samples were loaded onto a 1.0 ml Ni column and washed with 7×0.5 ml of loading buffer (50 mM Tris pH 7.5, 200 mM NaCl & 10 mM Imidazole). The samples were then eluted with 7×0.5 ml elution buffer (50 mM Tris, pH 7.5, 200 mM NaCl, 200 mM Imidazole). After volume correction samples were boiled in SDS loading buffer and run on a 4-12% SDS PAGE. For the two pRb proteins and E2F(243-437) were mixed at 40 μM in a final volume of 0.5 ml. After equilibration for 2 hrs the mixture was loaded onto 1 ml Ni beads in a small column, washed with 7×0.5 ml of loading buffer (50 mM Tris, pH 7.5, 200 mM NaCl, 10 mM Imidazole), eluted using 7×0.5 ml elution buffer (50 mM Tris, pH 7.5, 200 mM NaCl, 200 mM Imidazole). Samples, after correcting for volume were boiled in SDS sample buffer and run on a 4-12% SDS gel.

pRb [2] = target: T6, pRb (Homo sapiens, UniProt P06400); assay: Fluorescence polarization titration binding of fluoro-labelled peptides with pRb; conditions: pRb titration with fluoro-labelled peptide, one site binding model; read-out: Kd
T6 sequence (P06400 373-771 limits assumed): T1 sequence (P06400 373-771 limits assumed)
Text: Synthetic peptides were synthesised and fluoro-tagged using either N-terminal labelling with 5 carboxyfluorescein succinimidyl ester or cysteine labelling with single isomer tetramethylrhodamine-5-maleimide. […] Fluorescein fluorescence measured at λexcite=485 and λemit=520 nm
Rhodamine fluorescence measured at λexcite=545 and λemit=580 nm
Measurements were made using BMG Fluorostar plate reader fitted with polarization optic. […] Data were fitted to a one site binding model using Graphpad prism.
pRb titration curves were performed in 96-well black plates, in a total reaction volume of 100 μL. Doubling dilutions from 10 μM stock of pRb were made in binding buffer (50 mM Tris HCl, pH7.0, 100 mM NaCl, 10 mM DTT, 0.05% NP-40) and 80 μL added in triplicate to wells. 20 μL of 2 μM fluoro-peptide was added and pipetted up and down to mix. The plate was read after 1 hr incubation at room temperature.

Structure (SMILES) | displacement of Fl-E7 from pRb (pRb/Fl-E7) | Kd (RbAB) | Kd (RbABC) | displacement of Fl-E2F from pRb (pRb/Fl-E2F) | molar excess required to 50% compete with E2F(243-437) for binding to pRb (pRb [1]) | Kd (pRb [2])
CC[C@H](C)[C@H](NC(=O)CNC(=O)[C@H](CCC(=O)O)NC(=O)CNC(=O)[C@H](CCC(=O)O)NC(=O)[C@H](CCC(=O)O)NC(=O)[C@H](CC(C)C)NC(=O)CNC(=O)[C@H](Cc1ccccc1)NC(=O)[C@H](Cc1c[nH]cn1)NC(=O)[C@H](Cc1ccc(O)cc1)NC(=O)[C@H](CC(=O)O)NC(=O)[C@@H](N)CC(C)C)C(=O)N[C@@H](CCCNC(=N)N)C(=O)N[C@@H](CC(=O)O)C(=O)N[C@@H](CC(C)C)C(=O)N[C@@H](Cc1ccccc1)C(=O)N[C@@H](CC(=O)O)C(=O)O [E2F(409-426)] (H-LDYHFGLEEGEGIRDLFD-OH) | without disrupting F1-E7 binding | 340 ± 20 nM | 300 ± 30 nM | displace Fl-E2F | 15-to 30 fold | –
CC[C@H](C)[C@H](NC(=O)CNC(=O)[C@H](CCC(=O)O)NC(=O)CNC(=O)[C@H](CCC(=O)O)NC(=O)[C@H](CCC(=O)O)NC(=O)[C@H](CC(C)C)NC(=O)CNC(=O)[C@H](Cc1ccccc1)NC(=O)[C@H](Cc1c[nH]cn1)NC(=O)[C@H](Cc1ccc(O)cc1)NC(=O)[C@H](CC(=O)O)NC(=O)[C@H](CC(C)C)NC(=O)c1ccc2c(c1)C(=O)OC21c2ccc(O)cc2Oc2cc(O)ccc21)C(=O)N[C@@H](CCCNC(=N)N)C(=O)N[C@@H](CC(=O)O)C(=O)N[C@@H](CC(C)C)C(=O)N[C@@H](Cc1ccccc1)C(=O)N[C@@H](CC(=O)O)C(=O)O [Fluorescein-E2F, N-terminal amide link-age 5 carboxyfluorescein-E2F409-426, 18′mer] (5FAM-LDYHFGLEEGEGIRDLFD-OH; C-terminus assumed) | does not displace E7 | – | – | – | – | 450 ± 70 nM
